Test results published in ChEMBL document CHEMBL3885861, “Open TG-GATES”.

Species: Rattus norvegicus
Experiment: Open TG-GATES - Regimen: Single
Assay type: toxicity, organism-based, Sprague-Dawley
Set-up: regimen Single, gender Male, age 6 weeks
Conditions: in vivo, po, 0 mg/kg, route gavage, dose level Control; for APTT / Bas / Eos / Fbg / Hb / Ht / Lym / MCH / MCHC / MCV / Mono / Neu / PT / Plat / RBC / Ret / WBC: tissue Blood; for KIDNEY_L / KIDNEY_R / KIDNEY_TOTAL: tissue Kidney; for LIVER: tissue Liver; for A/G / ALP / ALT / AST / BUN / CRE / Ca / Cl / DBIL / GLC / IP / K / LDH / Na / PL / RALB / TBIL / TC / TG / TP / gamma-GTP: tissue Plasma

**Q.** What does the source list for `CC(C)C(=O)Nc1ccc([N+](=O)[O-])c(C(F)(F)F)c1` [FLUTAMIDE]?
**A.** TERMINAL_BW (3 h): 211.8 g; APTT (3 h): 18.5 s; Bas (3 h): 0%; Eos (3 h): 1%; Fbg (3 h): 211.2 mg/dL; Hb (3 h): 13.4 g/dL; Ht (3 h): 39%; Lym (3 h): 77%; MCH (3 h): 22.2 pg; MCHC (3 h): 34.4%; MCV (3 h): 64.5 fL; Mono (3 h): 3.6%; Neu (3 h): 17.4%; PT (3 h): 12.7 s; Plat (3 h): 126.5 x10_4/uL; RBC (3 h): 604.2 x10_4/ul; Ret (3 h): 8.3%; WBC (3 h): 99.3 x10_2/uL; KIDNEY_L (3 h): 1 g; KIDNEY_R (3 h): 1 g; KIDNEY_TOTAL (3 h): 1.9 g; LIVER (3 h): 10 g; A/G (3 h): 1.7; ALP (3 h): 1054 IU/L; ALT (3 h): 39.4 IU/L; AST (3 h): 69.6 IU/L; BUN (3 h): 10.8 mg/dL; CRE (3 h): 0.3 mg/dL; Ca (3 h): 11 mg/dL; Cl (3 h): 103.2 meq/L; DBIL (3 h): 0.3 mg/dL; GLC (3 h): 193.4 mg/dL; IP (3 h): 9.1 mg/dL; K (3 h): 3.9 meq/L; LDH (3 h): 165.4 IU/L; Na (3 h): 140 meq/L; PL (3 h): 176 mg/dL; RALB (3 h): 3.5 g/dL; TBIL (3 h): 0.4 mg/dL; TC (3 h): 83.2 mg/dL; TG (3 h): 186 mg/dL; TP (3 h): 5.5 g/dL; gamma-GTP (3 h): 1.4 IU/L; TERMINAL_BW (6 h): 207.5 g; APTT (6 h): 18.8 s; Bas (6 h): 0%; Eos (6 h): 0.6%; Fbg (6 h): 228 mg/dL; Hb (6 h): 13.7 g/dL; Ht (6 h): 39.6%; Lym (6 h): 80%; MCH (6 h): 21.9 pg; MCHC (6 h): 34.5%; MCV (6 h): 63.3 fL; Mono (6 h): 3.2%; Neu (6 h): 15%; PT (6 h): 12.5 s; Plat (6 h): 115.8 x10_4/uL; RBC (6 h): 625.8 x10_4/ul; Ret (6 h): 7.2%; WBC (6 h): 108.6 x10_2/uL; KIDNEY_L (6 h): 0.9 g; KIDNEY_R (6 h): 0.9 g; KIDNEY_TOTAL (6 h): 1.9 g; LIVER (6 h): 9 g; A/G (6 h): 1.8; ALP (6 h): 1030.8 IU/L; ALT (6 h): 37.6 IU/L; AST (6 h): 65.8 IU/L; BUN (6 h): 8.4 mg/dL; CRE (6 h): 0.3 mg/dL; Ca (6 h): 10.7 mg/dL; Cl (6 h): 102.6 meq/L; DBIL (6 h): 0.1 mg/dL; GLC (6 h): 193.6 mg/dL; IP (6 h): 9.5 mg/dL; K (6 h): 4.2 meq/L; LDH (6 h): 140.8 IU/L; Na (6 h): 139.8 meq/L; PL (6 h): 157 mg/dL; RALB (6 h): 3.5 g/dL; TBIL (6 h): 0.2 mg/dL; TC (6 h): 89 mg/dL; TG (6 h): 51.8 mg/dL; TP (6 h): 5.6 g/dL; gamma-GTP (6 h): 1 IU/L; TERMINAL_BW (9 h): 204.9 g; APTT (9 h): 18.4 s; Bas (9 h): 0%; Eos (9 h): 1%; Fbg (9 h): 209.2 mg/dL; Hb (9 h): 13.4 g/dL; Ht (9 h): 39.4%; Lym (9 h): 76.8%; MCH (9 h): 21.6 pg; MCHC (9 h): 34.2%; MCV (9 h): 63.3 fL; Mono (9 h): 2.8%; Neu (9 h): 18.6%; PT (9 h): 13.2 s; Plat (9 h): 128.5 x10_4/uL; RBC (9 h): 621.8 x10_4/ul; Ret (9 h): 7.7%; WBC (9 h): 92.7 x10_2/uL; KIDNEY_L (9 h): 1 g; KIDNEY_R (9 h): 1 g; KIDNEY_TOTAL (9 h): 1.9 g; LIVER (9 h): 8.3 g; A/G (9 h): 1.6; ALP (9 h): 866.2 IU/L; ALT (9 h): 32.6 IU/L; AST (9 h): 63.4 IU/L; BUN (9 h): 10.4 mg/dL; CRE (9 h): 0.3 mg/dL; Ca (9 h): 10.1 mg/dL; Cl (9 h): 103.4 meq/L; DBIL (9 h): 0.072 mg/dL; GLC (9 h): 204.6 mg/dL; IP (9 h): 10.8 mg/dL; K (9 h): 3.7 meq/L; LDH (9 h): 146.2 IU/L; Na (9 h): 141.4 meq/L; PL (9 h): 126.8 mg/dL; RALB (9 h): 3.3 g/dL; TBIL (9 h): 0.1 mg/dL; TC (9 h): 68.6 mg/dL; TG (9 h): 43 mg/dL; TP (9 h): 5.3 g/dL; gamma-GTP (9 h): 0.8 IU/L; TERMINAL_BW (24 h): 219.3 g; APTT (24 h): 17.7 s; Bas (24 h): 0%; Eos (24 h): 1%; Fbg (24 h): 206.4 mg/dL; Hb (24 h): 13.4 g/dL; Ht (24 h): 40.4%; Lym (24 h): 82.2%; MCH (24 h): 21.8 pg; MCHC (24 h): 33.3%; MCV (24 h): 65.7 fL; Mono (24 h): 3.2%; Neu (24 h): 13.4%; PT (24 h): 12.6 s; Plat (24 h): 126.3 x10_4/uL; RBC (24 h): 615.6 x10_4/ul; Ret (24 h): 7.7%; WBC (24 h): 97.9 x10_2/uL; KIDNEY_L (24 h): 0.9 g; KIDNEY_R (24 h): 1 g; KIDNEY_TOTAL (24 h): 1.9 g; LIVER (24 h): 10.2 g; A/G (24 h): 1.7; ALP (24 h): 878.8 IU/L; ALT (24 h): 39.8 IU/L; AST (24 h): 68 IU/L; BUN (24 h): 14.2 mg/dL; CRE (24 h): 0.4 mg/dL; Ca (24 h): 10.3 mg/dL; Cl (24 h): 103.2 meq/L; DBIL (24 h): 0.084 mg/dL; GLC (24 h): 212 mg/dL; IP (24 h): 7.1 mg/dL; K (24 h): 3.7 meq/L; LDH (24 h): 136.2 IU/L; Na (24 h): 140.6 meq/L; PL (24 h): 135.2 mg/dL; RALB (24 h): 3.3 g/dL; TBIL (24 h): 0.1 mg/dL; TC (24 h): 77.4 mg/dL; TG (24 h): 62.6 mg/dL; TP (24 h): 5.4 g/dL; gamma-GTP (24 h): 0.8 IU/L
